Here are results for one compound from publication PMC11162409, “Phenylalanine as an effective stabilizer and aggregation inhibitor of Bacillus amyloliquefaciens alpha-amylase” (AMB Express, 2024).

The test has as its target Bacillus amyloliquefaciens alpha-amylase (BAA) (Bacillus amyloliquefaciens, UniProt P00692). As to the kind of experiment: Bernfeld DNS assay of starch hydrolysis ([…] nm) with commercial enzyme. Format: biochemical.

Sequence of Bacillus amyloliquefaciens alpha-amylase (BAA) (P00692 32-514): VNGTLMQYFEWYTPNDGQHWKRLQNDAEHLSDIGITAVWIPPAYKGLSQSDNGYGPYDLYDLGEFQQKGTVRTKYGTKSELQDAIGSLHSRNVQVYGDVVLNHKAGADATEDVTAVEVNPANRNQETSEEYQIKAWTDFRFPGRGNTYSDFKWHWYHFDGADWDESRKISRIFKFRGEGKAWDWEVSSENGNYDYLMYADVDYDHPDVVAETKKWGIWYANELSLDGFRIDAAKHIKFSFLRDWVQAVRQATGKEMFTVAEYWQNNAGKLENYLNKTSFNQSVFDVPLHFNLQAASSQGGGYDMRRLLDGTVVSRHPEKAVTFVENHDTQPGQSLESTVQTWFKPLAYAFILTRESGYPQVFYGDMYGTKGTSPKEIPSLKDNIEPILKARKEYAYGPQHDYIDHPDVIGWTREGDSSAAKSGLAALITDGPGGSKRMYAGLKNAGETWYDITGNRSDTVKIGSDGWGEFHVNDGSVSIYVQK

In turn, `N[C@@H](Cc1ccc(O)cc1)C(=O)O` [Tyr, tyrosine] returned an IC50 of roughly 100 mM.

Broadly, the IC50 is the point on the concentration scale where inhibition reaches its midpoint. Read a high IC50 as lower potency.
